Assay results from PubChem BioAssay (NCI).
Where “and” joins values, the source holds several entries; their conditions need not be identical. Identical values can stand only once.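 Grown in 96-well plates, cells were treated for 48 hours with each compound at five concentrations. Insufficient inhibition: endpoint recorded as highest concentration tested. GI50 is the concentration that inhibits growth by half. At the TGI there is no net growth.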

What was measured:
Experiment in all cases: inhibition of tumour cell growth, NCI panel, 48 h
M14 melanoma = tested on: M14 melanoma
MCF7 breast = tested on: MCF7 breast
U251 CNS = tested on: U251 CNS
CAKI-1 renal = tested on: CAKI-1 renal
UACC-62 melanoma = tested on: UACC-62 melanoma
COLO 205 colon = tested on: COLO 205 colon
NCI-H23 lung = tested on: NCI-H23 lung
OVCAR-3 ovarian = tested on: OVCAR-3 ovarian
KM12 colon = tested on: KM12 colon
SR leukemia = tested on: SR leukemia

Row | SMILES | GI50 (M14 melanoma) | TGI (M14 melanoma) | GI50 (MCF7 breast) | TGI (MCF7 breast) | GI50 (U251 CNS) | TGI (U251 CNS) | GI50 (CAKI-1 renal) | TGI (CAKI-1 renal) | GI50 (UACC-62 melanoma) | TGI (UACC-62 melanoma) | GI50 (COLO 205 colon) | TGI (COLO 205 colon) | GI50 (NCI-H23 lung) | TGI (NCI-H23 lung) | GI50 (OVCAR-3 ovarian) | TGI (OVCAR-3 ovarian) | GI50 (KM12 colon) | TGI (KM12 colon) | TGI (SR leukemia) [µM] | GI50 (SR leukemia) [nM]
1 | Clc1ccc(-c2nc(-c3c[nH]c4ncccc34)cs2)cc1 | > 100000 nM | > 100 µM | > 100 µM | > 100 µM | > 100000 nM | > 100 µM | > 100000 nM | > 100 µM | > 100000 nM | > 100 µM | > 100 µM | > 100 µM | 97.7 µM | > 100 µM | > 100000 nM | > 100 µM | > 100000 nM | > 100 µM | – | –
2 | O=S(=O)(c1ccc2c(c1)C(=NO)c1cc(S(=O)(=O)N3CCCCC3)ccc1-2)N1CCCCC1 | 182 nM and 187 nM | 0.33 µM and 0.349 µM | > 1 µM and 0.178 µM | > 1 µM and 0.344 µM | > 1000 nM and 178 nM | > 1 µM and 0.344 µM | 427 nM and 147 nM | > 1 µM and 0.282 µM | 227 nM and 174 nM | 0.612 µM and 0.329 µM | > 1 µM and 0.194 µM | > 1 µM and 0.363 µM | > 1 µM and 0.162 µM | > 1 µM and 0.314 µM | 870 nM and 177 nM | > 1 µM and 0.321 µM | 508 nM and 184 nM | > 1 µM and 0.356 µM | – | –
3 | Cc1ccc(NC(=O)C2C(=O)C(=O)N(c3ccc(C)cc3)C2=O)cc1 (stereo unspecified) | – | > 100 µM | – | – | – | > 100 µM | – | – | – | > 100 µM | – | > 100 µM | – | > 100 µM | – | – | – | > 100 µM | > 100 | –
4 | S=C1CNC(=S)CN1 | – | > 100 µM | – | – | – | > 100 µM | – | > 100 µM | – | > 100 µM | – | > 100 µM | – | – | – | > 100 µM | – | > 100 µM | > 100 | –
5 | CCCCN(CCCC)c1cc(C(=O)CCCCCN)c2ccccc2n1 | 1830 nM | 3.29 µM | – | – | 1770 nM | 3.23 µM | 1860 nM | 4.38 µM | 1660 nM | 3.07 µM | – | – | 1.89 µM | 3.8 µM | 2020 nM | 3.79 µM | – | – | – | –
6 | CCOC(=O)/C(=C/c1cc(OC)ccc1OC)CC(=O)O | – | > 100 µM | – | – | – | > 100 µM | – | > 100 µM | – | > 100 µM | – | > 100 µM | – | > 100 µM | – | > 100 µM | – | > 100 µM | > 100 | –
7 | C=CCOC1=C2CC[C@H](O)[C@@]2(C)CCC1=O | – | > 100 µM | – | – | – | > 100 µM | – | > 100 µM | – | > 100 µM | – | > 100 µM | – | – | – | > 100 µM | – | > 100 µM | > 100 | –
8 | Nc1ccn(C2OC(CO[P+](=O)OC3C(CO[P+](=O)OC4C(CO[P+](=O)OC5C(CO[P+](=O)OC6C(CO[P+](=O)OC7C(CO[P+](=O)OC8C(CO[P+](=O)OC9C(CO[P+](=O)OC%10C(CO[P+](=O)OC%11C(CO)OC(n%12ccc(N)nc%12=O)C%11(F)F)OC(n%11ccc(N)nc%11=O)C%10(F)F)OC(n%10ccc(N)nc%10=O)C9(F)F)OC(n9ccc(N)nc9=O)C8(F)F)OC(n8ccc(N)nc8=O)C7(F)F)OC(n7ccc(N)nc7=O)C6(F)F)OC(n6ccc(N)nc6=O)C5(F)F)OC(n5ccc(N)nc5=O)C4(F)F)OC(n4ccc(N)nc4=O)C3(F)F)C(O)C2(F)F)c(=O)n1 (stereo unspecified) | 39.7 nM | 0.27 µM | – | > 100 µM | – | > 100 µM | – | – | – | – | 0.369 µM | > 100 µM | – | – | – | > 100 µM | 2030 nM | > 100 µM | 0.507 | –
9 | CCCCCCCCCCCCCCCCc1c(C(=O)OC)[nH]c(=S)[nH]c1=O | – | > 50 µM | – | – | – | > 50 µM | – | > 50 µM | – | > 50 µM | – | > 50 µM | – | > 50 µM | – | > 50 µM | – | > 50 µM | 32 | –
10 | C=CC[Se]C(=O)c1ccccc1OC(C)=O | 1580 nM | 3.06 µM | 1.83 µM | 4.31 µM | – | – | 2350 nM | 5.73 µM | 1790 nM | 3.35 µM | 2.25 µM | 5.01 µM | 1.95 µM | 4.57 µM | 1950 nM | 3.51 µM | 947 nM | 2.52 µM | 19.2 | 2410
11 | NC(=O)c1ncn(C2OC(CO)C(O)C2O)n1 (stereo unspecified) | > 100000 nM | > 100 µM | 36.4 µM | > 100 µM | – | – | 57200 nM | > 100 µM | > 100000 nM | > 100 µM | 55.2 µM | > 100 µM | > 100 µM | > 100 µM | 74900 nM | > 100 µM | > 100000 nM | > 100 µM | > 100 | > 100000
12 | Cc1cc(=O)[nH]c(CNC(=O)c2cccc3ccccc23)n1 | – | > 100 µM | – | – | – | > 100 µM | – | > 100 µM | – | > 100 µM | – | > 100 µM | – | > 100 µM | – | > 100 µM | – | – | > 100 | –
13 | [Ce+3].[Cl-].[O-]/N=C(\c1ccccc1)c1ccccn1.[O-]/N=C(\c1ccccc1)c1ccccn1.[O-]/N=C(\c1ccccc1)c1ccccn1 | 35700 nM | > 100 µM | – | – | > 100000 nM | > 100 µM | 32400 nM | > 100 µM | 39700 nM | > 100 µM | 33.1 µM | > 100 µM | 59.8 µM | > 100 µM | 21400 nM | 90.3 µM | 46800 nM | > 100 µM | – | –
14 | CC(/C=C/C=C/C=C/C=C/C=C/C(O)=C1/C(=O)C(CCC(=O)O)N(C)C1=O)=C\C(C)C(OC1CC(O)C(O)C(C)O1)C(C)C (stereo unspecified) | – | 15.2 µM | – | 33.6 µM | – | 11.7 µM | – | 12.6 µM | – | – | – | 4.48 µM | – | 9.75 µM | – | 5.12 µM | – | 3.73 µM | 40.2 | –
15 | c1ccc2c(c1)nnn1c3cnccc3nc21 | – | > 100 µM | – | – | – | > 100 µM | – | > 100 µM | – | > 100 µM | – | 46.1 µM | – | 69.4 µM | – | 55.8 µM | – | 64.8 µM | – | –
16 | Nc1ccccc1S(=O)c1ccccc1 (stereo unspecified) | – | > 100 µM | – | – | – | > 100 µM | – | > 1 µM | – | > 100 µM | – | > 100 µM | – | > 100 µM | – | > 100 µM | – | > 100 µM | – | –
17 | OCC1OC(n2ccc3cnccc32)CC1O (stereo unspecified) | – | > 100 µM | – | – | – | > 100 µM | – | > 100 µM | – | > 100 µM | – | > 100 µM | – | > 100 µM | – | > 100 µM | – | > 100 µM | > 100 | –
18 | Nc1ccccc1C#Cc1ccccc1C#Cc1ccccc1N | 6620 nM | 24.5 µM | 12.4 µM | > 100 µM | 4500 nM | 17.3 µM | 4410 nM | 18.5 µM | 6930 nM | 21.2 µM | 15 µM | 43.9 µM | 19.3 µM | 70.8 µM | 2220 nM | 8.24 µM | 2970 nM | 14.7 µM | – | –
